From the NIST ThermoML archive (doi:10.1016/j.fluid.2010.05.013)
Numbers after ± are expanded uncertainties.

Settings: visual observation

SMILES	Normal melting temperature (Metastable crystal) [°C]	Normal melting temperature (Crystal) [°C]
CCn1cc[n+](C)c1.O=S(=O)([N-]S(=O)(=O)C(F)(F)F)C(F)(F)F	-17.00 ± 2	
CC(O)C(=O)O (stereo not drawn) [2-hydroxypropanoic acid]		17 ± 0.17
CCC(=O)O [propanoic acid]		-20.83 ± 0.17
